Our source for the IC50 and Ki values is ChEMBL document CHEMBL1909046, “DrugMatrix in vitro pharmacology data”.

For assay [1], the target named is T1, Alpha-1A adrenergic receptor (Rattus norvegicus, UniProt P43140).
T1 sequence (P43140 whole entry): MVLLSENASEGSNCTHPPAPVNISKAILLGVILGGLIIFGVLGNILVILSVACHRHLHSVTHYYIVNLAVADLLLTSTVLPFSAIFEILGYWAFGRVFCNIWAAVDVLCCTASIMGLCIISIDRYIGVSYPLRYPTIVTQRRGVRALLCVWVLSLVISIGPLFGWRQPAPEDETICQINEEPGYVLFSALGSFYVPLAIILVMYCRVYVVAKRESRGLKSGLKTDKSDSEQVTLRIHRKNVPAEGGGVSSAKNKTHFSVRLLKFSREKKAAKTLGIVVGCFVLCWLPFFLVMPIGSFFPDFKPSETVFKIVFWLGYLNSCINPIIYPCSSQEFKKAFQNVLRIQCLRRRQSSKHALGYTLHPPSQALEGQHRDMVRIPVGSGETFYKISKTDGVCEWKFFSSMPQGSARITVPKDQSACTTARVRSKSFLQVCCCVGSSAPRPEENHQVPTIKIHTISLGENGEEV
The experiment in a line: DRUGMATRIX: Alpha-1A adrenergic receptor radioligand binding (ligand: prazosin). The class given is cell membranes, Wistar, Submaxillary gland, Membrane. The conditions noted are these: Not Active = under 50% inhibition at 10 µM; for Ki: read-out: Ki.

The target of assay [2] is Sodium-dependent noradrenaline transporter (Homo sapiens, UniProt P23975). The assay is described as follows: DRUGMATRIX: Norepinephrine Transporter radioligand binding (ligand: [125I] RTI-55). The conditions noted are these: Not Active = under 50% inhibition at 10 µM; for Ki: read-out: Ki. Type of assay: cell membranes, MDCK, Membrane.
Sequence of Sodium-dependent noradrenaline transporter (P23975 whole entry): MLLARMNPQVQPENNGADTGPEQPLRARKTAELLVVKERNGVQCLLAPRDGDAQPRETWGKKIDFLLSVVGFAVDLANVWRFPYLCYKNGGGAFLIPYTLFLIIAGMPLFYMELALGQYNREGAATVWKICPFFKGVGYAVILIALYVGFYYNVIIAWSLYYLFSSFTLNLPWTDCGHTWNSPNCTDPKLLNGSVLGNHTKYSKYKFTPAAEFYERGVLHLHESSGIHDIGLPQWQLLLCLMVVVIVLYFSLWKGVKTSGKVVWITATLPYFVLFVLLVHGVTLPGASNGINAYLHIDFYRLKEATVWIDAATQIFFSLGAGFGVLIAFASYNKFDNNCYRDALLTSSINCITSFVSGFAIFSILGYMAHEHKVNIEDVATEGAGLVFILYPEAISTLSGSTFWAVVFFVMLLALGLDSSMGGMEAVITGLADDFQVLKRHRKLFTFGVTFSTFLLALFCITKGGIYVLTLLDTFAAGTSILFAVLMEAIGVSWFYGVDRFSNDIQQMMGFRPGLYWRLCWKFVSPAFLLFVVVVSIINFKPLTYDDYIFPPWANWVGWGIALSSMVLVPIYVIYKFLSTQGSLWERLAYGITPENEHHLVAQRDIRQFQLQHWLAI
The target in assay [3] is C-C chemokine receptor type 5 (Homo sapiens, UniProt P51681). Type of assay: cell membranes, Membrane. The conditions noted are these: hek293. Further: in other assays of this panel Not Active means under 50% inhibition at 10 µM.
Sequence of C-C chemokine receptor type 5 (P51681 whole entry): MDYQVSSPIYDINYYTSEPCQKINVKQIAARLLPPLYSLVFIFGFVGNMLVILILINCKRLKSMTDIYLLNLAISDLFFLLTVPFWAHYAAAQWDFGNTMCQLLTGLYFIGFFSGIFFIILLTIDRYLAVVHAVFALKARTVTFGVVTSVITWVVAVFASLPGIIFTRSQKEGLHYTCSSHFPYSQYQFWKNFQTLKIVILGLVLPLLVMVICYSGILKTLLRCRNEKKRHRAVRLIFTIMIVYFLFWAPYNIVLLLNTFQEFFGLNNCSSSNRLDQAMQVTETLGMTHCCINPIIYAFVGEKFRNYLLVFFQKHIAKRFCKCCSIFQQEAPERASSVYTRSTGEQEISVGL
The target of assay [4] is T2, C-X-C chemokine receptor type 2 (Homo sapiens, UniProt P25025). Further: in other assays of this panel Not Active means under 50% inhibition at 10 µM.
T2 sequence (P25025 whole entry): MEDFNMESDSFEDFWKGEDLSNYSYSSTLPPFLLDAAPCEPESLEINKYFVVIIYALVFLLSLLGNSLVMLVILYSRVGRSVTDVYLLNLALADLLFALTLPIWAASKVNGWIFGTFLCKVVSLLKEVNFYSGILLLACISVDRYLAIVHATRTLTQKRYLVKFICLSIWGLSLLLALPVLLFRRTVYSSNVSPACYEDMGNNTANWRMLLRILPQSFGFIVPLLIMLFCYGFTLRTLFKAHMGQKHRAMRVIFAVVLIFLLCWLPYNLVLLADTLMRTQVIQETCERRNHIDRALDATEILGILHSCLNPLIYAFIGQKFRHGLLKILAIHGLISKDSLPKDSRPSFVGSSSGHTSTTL
The class given is cell membranes, Membrane. The following applies: cho-k1.

The nature of assay [5]: DRUGMATRIX: Platelet-Derived Growth Factor (PDGF) radioligand binding (ligand: [125I] PDGF). The class given is cell-based. The conditions noted are these: nih3t3; Not Active = under 50% inhibition at 10 µM.
Assay [6] has as its target Mitogen-activated protein kinase 14 (Homo sapiens, UniProt Q16539). Details: species or system Escherichia coli.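 Further: inhibition of p38alpha enzyme activity in a biochemical kinase assay, with myelin basic protein serving as substrate; in other assays of this panel Not Active means under 50% inhibition at 10 µM.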
Another assay addresses Acetylcholinesterase (Homo sapiens, UniProt P22303). The experiment in a line: DRUGMATRIX: Acetylcholinesterase enzyme inhibition (substrate: acetylthiocholine). The class given is cell-based, HEK293. The following applies: Not Active = under 50% inhibition at 10 µM.

Sequence of Mitogen-activated protein kinase 14 (Q16539 whole entry): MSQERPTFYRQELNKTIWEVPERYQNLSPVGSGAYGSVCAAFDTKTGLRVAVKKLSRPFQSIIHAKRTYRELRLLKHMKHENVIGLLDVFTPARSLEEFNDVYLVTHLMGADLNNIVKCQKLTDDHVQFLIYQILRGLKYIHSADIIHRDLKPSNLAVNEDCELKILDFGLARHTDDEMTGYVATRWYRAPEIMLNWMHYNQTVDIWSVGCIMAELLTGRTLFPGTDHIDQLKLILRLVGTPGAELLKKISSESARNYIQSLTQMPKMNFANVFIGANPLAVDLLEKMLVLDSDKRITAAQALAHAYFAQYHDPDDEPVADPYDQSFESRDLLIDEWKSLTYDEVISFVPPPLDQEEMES
Sequence of Acetylcholinesterase (P22303 whole entry): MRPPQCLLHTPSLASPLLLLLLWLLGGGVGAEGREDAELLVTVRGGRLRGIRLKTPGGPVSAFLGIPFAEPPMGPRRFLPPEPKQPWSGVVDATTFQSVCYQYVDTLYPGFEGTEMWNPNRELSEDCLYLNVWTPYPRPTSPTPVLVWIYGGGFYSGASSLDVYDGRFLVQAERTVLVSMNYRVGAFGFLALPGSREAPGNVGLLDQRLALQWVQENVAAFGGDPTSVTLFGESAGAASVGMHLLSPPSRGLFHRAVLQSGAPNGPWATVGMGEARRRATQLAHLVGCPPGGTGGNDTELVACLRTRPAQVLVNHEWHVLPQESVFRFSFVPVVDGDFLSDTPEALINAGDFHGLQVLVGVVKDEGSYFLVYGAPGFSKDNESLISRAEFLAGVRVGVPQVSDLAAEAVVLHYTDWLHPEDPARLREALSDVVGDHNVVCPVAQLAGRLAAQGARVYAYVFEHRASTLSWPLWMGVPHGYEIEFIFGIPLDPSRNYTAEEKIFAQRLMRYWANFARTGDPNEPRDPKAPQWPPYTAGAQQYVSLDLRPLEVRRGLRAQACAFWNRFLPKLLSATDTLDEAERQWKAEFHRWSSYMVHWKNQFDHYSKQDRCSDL

As for `O=c1oc2ccccc2c(O)c1Cc1c(O)c2ccccc2oc1=O` [DICUMAROL], the IC50 entry in assay [1], in assay [2] (mdck), in assay [3], in assay [4], in assay [5] and in assay [6] was “Not Active” throughout. Moreover, the half-maximal inhibitory concentration (IC50) – broadly, the concentration that inhibits the measured activity by half – at Acetylcholinesterase (hek293) is given as “Not Active”. The Ki (as a rule, a dissociation constant, usually derived from enzyme kinetics or from competition with a known ligand) in assay [5] is given as “Not Active”.
For `Nc1nc(N)nc(-c2cc(Cl)ccc2Cl)n1.O=C(O)/C=C\C(=O)O` [IRSOGLADINE MALEATE], the IC50 entry in assay [1], in assay [2] (mdck), in assay [3], in assay [4], in assay [5] and in assay [6] was “Not Active” in each case. Moreover, the IC50 result against Acetylcholinesterase (hek293) is on record as “Not Active”. Also, the Ki result in assay [5] was “Not Active”.
`CC1(C)O[C@@H]2C[C@H]3[C@@H]4CCC5=CC(=O)CC[C@]5(C)[C@@]4(F)[C@@H](O)C[C@]3(C)[C@]2(C(=O)CCl)O1` [HALCINONIDE]: the IC50 entry in assay [1], in assay [2] (mdck), in assay [3], in assay [4], in assay [5] and in assay [6] was “Not Active” each time. Further, on Acetylcholinesterase (hek293), the IC50 result is “Not Active”. Further, the inhibitory constant (Ki) result in assay [5] is given as “Not Active”.
For the compound `O=c1[nH]c(=O)n([C@H]2C[C@H](O)[C@@H](CO)O2)cc1I` [IDOXURIDINE], the half-inhibitory concentration (IC50) result in assay [1], in assay [2] (mdck), in assay [3], in assay [4], in assay [5] and in assay [6] was “Not Active” in each case. Also, the concentration for half-maximal inhibition (IC50) result against Acetylcholinesterase (hek293) is recorded as “Not Active”. In addition, the Ki entry in assay [5] is given as “Not Active”.
`CC(C)C(=O)Nc1ccc([N+](=O)[O-])c(C(F)(F)F)c1` [FLUTAMIDE]: the IC50 entry in assay [1], in assay [2] (mdck), in assay [3], in assay [4], in assay [5] and in assay [6] was “Not Active” each time. Besides, at Acetylcholinesterase (hek293), the IC50 entry is given as “Not Active”. Also, the Ki entry in assay [5] was “Not Active”.
On to `CCC1(c2ccc(N)cc2)CCC(=O)NC1=O` (stereo unspecified) [AMINOGLUTETHIMIDE], for which the concentration for half-maximal inhibition (IC50) result in assay [1], in assay [2] (mdck), in assay [3], in assay [4], in assay [5] and in assay [6] was “Not Active” in each case. On Acetylcholinesterase (hek293), the IC50 result is given as “Not Active”. In addition, the Ki result in assay [5] is “Not Active”.
Take `Cc1ccc2cc3c(ccc4ccccc43)c3c2c1CC3` [3-METHYLCHOLANTHRENE]: the IC50 entry is “Not Active” in assay [1]; 29.7 µM in assay [2] (read-out: IC50); “Not Active” in assay [3]; “Not Active” in assay [4]; “Not Active” in assay [5]; “Not Active” in assay [6]. Moreover, the IC50 at Acetylcholinesterase (read-out: IC50) was 22.7 µM. The Ki in assay [2] was 29.4 µM; in assay [5], “Not Active”.
`O=C(O)CCCc1ccc(N(CCCl)CCCl)cc1` [CHLORAMBUCIL]: the IC50 entry in assay [1], in assay [2] (mdck), in assay [3], in assay [4], in assay [5] and in assay [6] was “Not Active” each time. In addition, the 50% inhibitory concentration (IC50) entry on Acetylcholinesterase (hek293) is reported as “Not Active”. In addition, in assay [5], the inhibition constant Ki entry is given as “Not Active”.
In the case of `CC(NC(C)(C)C)C(=O)c1cccc(Cl)c1` (stereo unspecified) [BUPROPION], the half-maximal inhibitory concentration (IC50) entry in assay [1], in assay [2] (mdck), in assay [3], in assay [4], in assay [5] and in assay [6] was “Not Active” in each case. For the same compound, at Acetylcholinesterase (hek293), the IC50 result is listed as “Not Active”. In addition, in assay [5], the Ki entry is on record as “Not Active”.
On to `C=C(C)C1(O)OC(=O)C=C1OC` (stereo unspecified) [PENICILLIC ACID], for which the 50% inhibitory concentration (IC50) result in assay [1], in assay [2] (mdck), in assay [3], in assay [4], in assay [5] and in assay [6] was “Not Active” each time. Further, the half-inhibitory concentration (IC50) entry at Acetylcholinesterase (hek293) is on record as “Not Active”. Also, the Ki entry in assay [5] was “Not Active”.
As for `CCCC1O[C@@H]2C[C@H]3[C@@H]4CCC5=CC(=O)C=C[C@]5(C)[C@H]4[C@@H](O)C[C@]3(C)[C@]2(C(=O)CO)O1` (stereo partly specified) [BUDESONIDE], the IC50 result in assay [1], in assay [2] (mdck), in assay [3], in assay [4], in assay [5] and in assay [6] was “Not Active” in each case. Besides, at Acetylcholinesterase (hek293), the IC50 result is recorded as “Not Active”. The Ki result in assay [5] was “Not Active”.
For the compound `COCCc1ccc(OCC(O)CNC(C)C)cc1` (stereo unspecified) [METOPROLOL], the concentration for half-maximal inhibition (IC50) result in assay [1], in assay [2] (mdck), in assay [3], in assay [4], in assay [5] and in assay [6] was “Not Active” in each case. In addition, the half-inhibitory concentration (IC50) result against Acetylcholinesterase (hek293) is given as “Not Active”. In assay [5], the inhibitory constant (Ki) entry is reported as “Not Active”.
Take `CC1CC(OC(=O)C(O)c2ccccc2)CC(C)(C)C1` (stereo unspecified) [CYCLANDELATE]: the IC50 entry in assay [1], in assay [2] (mdck), in assay [3], in assay [4], in assay [5] and in assay [6] was “Not Active” each time. Moreover, the IC50 entry at Acetylcholinesterase (hek293) is listed as “Not Active”. The Ki result in assay [5] is on record as “Not Active”.
As to `C1CCC(C(CC2CCCCN2)C2CCCCC2)CC1` (stereo unspecified) [PERHEXILINE], the IC50 entry in assay [1] was “Not Active”; in assay [2] (read-out: IC50), 3.29 µM; in assay [3], “Not Active”; in assay [4], “Not Active”; in assay [5], “Not Active”; in assay [6] it was “Not Active”. In addition, at Acetylcholinesterase (hek293), the IC50 entry was “Not Active”. In addition, the Ki in assay [2] was 3.27 µM; in assay [5], “Not Active”.
For `CC(C)[C@H]1C(=O)N2CCC[C@H]2[C@]2(O)O[C@](NC(=O)[C@@H]3C=C4c5cccc6[nH]cc(c56)C[C@H]4N(C)C3)(C(C)C)C(=O)N12` [ERGOCORNINE], the IC50 was 0.011 µM in assay [1] (read-out: IC50); “Not Active” in assay [2] (mdck); “Not Active” in assay [3]; “Not Active” in assay [4]; “Not Active” in assay [5]; “Not Active” in assay [6]. Besides, the 50% inhibitory concentration (IC50) entry against Acetylcholinesterase (hek293) is “Not Active”. The Ki is 0.00447 µM in assay [1] and “Not Active” in assay [5].
In the case of `CC(C)[C@@]1(NC(=O)[C@@H]2C[C@@H]3c4cccc5[nH]cc(c45)C[C@H]3N(C)C2)O[C@@]2(O)[C@@H]3CCCN3C(=O)[C@H](Cc3ccccc3)N2C1=O.CS(=O)(=O)O` [DIHYDROERGOCRISTINE MESYLATE], the IC50 was 0.00162 µM in assay [1] (read-out: IC50); “Not Active” in assay [2] (mdck); “Not Active” in assay [3]; “Not Active” in assay [4]; “Not Active” in assay [5]; “Not Active” in assay [6]. Besides, on Acetylcholinesterase (hek293), the IC50 result is “Not Active”. Also, the Ki in assay [1] was 0.000656 µM; in assay [5] it was “Not Active”.
Take `C[C@]12CCC(=O)C=C1CC[C@@H]1[C@@H]2CC[C@@]2(C)[C@H]1CC[C@]2(C)O` [METHYLTESTOSTERONE]: the concentration for half-maximal inhibition (IC50) entry in assay [1], in assay [2] (mdck), in assay [3], in assay [4], in assay [5] and in assay [6] was “Not Active” each time. At Acetylcholinesterase (hek293), the IC50 entry is on record as “Not Active”. The Ki entry in assay [5] is listed as “Not Active”.
Regarding `Nc1nc2c(ncn2COCCO)c(=O)[nH]1` [ACYCLOVIR], the 50% inhibitory concentration (IC50) result in assay [1], in assay [2] (mdck), in assay [3], in assay [4], in assay [5] and in assay [6] was “Not Active” throughout. In addition, at Acetylcholinesterase (hek293), the IC50 entry is given as “Not Active”. Moreover, the inhibitory constant (Ki) entry in assay [5] is listed as “Not Active”.
For `CC(C)CN(C[C@@H](O)[C@H](Cc1ccccc1)NC(=O)O[C@H]1CCOC1)S(=O)(=O)c1ccc(N)cc1`, the concentration for half-maximal inhibition (IC50) result in assay [1], in assay [2] (mdck), in assay [3], in assay [4], in assay [5] and in assay [6] was “Not Active” each time. The half-inhibitory concentration (IC50) result against Acetylcholinesterase (hek293) was “Not Active”. In addition, the inhibitory constant (Ki) result in assay [5] is reported as “Not Active”.
